Legend:
[1] = system: oxazolone-induced allergic dermatitis; assay: Murine oxazolone-induced allergic dermatitis; type: in vivo, mice
Excerpt: An allergic form of contact dermatitis can be induced in mice by repeated epicutaneous application of the chemical sensitizer oxazolone. This leads to local augmented thickness and weight increase of the skin area where the rechallenge was applied; from the histological point of view, oxazolone-induced dermatitis is characterized by severe mononuclear cell infiltration of the dermis with in situ production of the type 1 proinflammatory cytokines TNF-alpha, IL-1alpha and IFN-gamma. These well-defined mechanistic pathways of inflammatory skin damage make oxazolone-dermatitis a useful in vivo tool for pathogenic studies and a pharmacodynamic parameter to screen drugs of potential utility in counteracting type 1 cytokine dependent cutaneous immunoinflammatory responses such as those found in some forms of bullous disorders, cutaneous vasculitis and psoriasis.
The efficacy of MWL001 in the treatment of Murine oxazolone-induced allergic dermatitis was evaluated. MWL001 and DEX were administered one hour after the second challenge with oxazolone.
The mice were sensitized on day 0 by a single application of 10 ∞l of 2% oxazolone (Sigma Chimica, Milan, Italy) in ethanol to the inner and outer surface of the left ear. The disease was elicited by local rechallenge on day 7 with 15% oxazolone. The right ear was treated with the vehicle of oxazolone (acetone). Eighteen hours after […] the mice are sacrificed under ether anesthesia and both the right and left ears were excised.
Inflammation was assessed as the percentage increase in ear thickness and/or ear weight in the treated left ear vs. the vehicle-treated right ear. Ear thickness was measured with a digital calliper. The extent of the inflammation was quantified as follows: ear swelling (%)=100×(a−b)/b, where a is thickness/weight of the left (treated) ear and b is the thickness/weight of the right (untreated) ear.
Ear tissue samples were fixed with 4% formaldehyde in phosphate-buffered saline (PBS) and embedded in paraffin. Thereafter, 6-μm sections were deparaffinized with xylene, stained with hematoxylin-eosin and observed with a Zeiss microscope (Jena, Germany).

DNBS-induced colitis = assay: DNBS-induced experimental colitis in mice, oral administration; type: in vivo; conditions: day four after DNBS, MWL001 50 mg/kg oral daily
Protocol: In this study, the effect of MWL001 on pro-inflammatory mediators in DNBS-induced experimental colitis in mice was evaluated. In particular it was observed that there was no expression of TNF-α, CD4, TGF-13, CD25 in the colon tissue from sham-treated mice. MWL001 and DEX were administered orally and daily starting at six hours after the DNBS challenge.
Colitis was induced with a very low dose of 2,4-dinitrobenzene sulfonic acid (DNBS) (4 mg per mouse) by using a modification of the method first described in mice. […] Mice were anesthetized by Enflurane. DNBS (4 mg in 100 μl of 50% ethanol) was injected into the rectum through a catheter inserted 4.5 cm proximally to the anus. The carrier alone (100 μl of 50% ethanol) was administered in control experiments. Thereafter, the animals were kept for 15 minutes in a Trendelenburg position to avoid reflux. […] On Day four, the animals were weighed and anaesthetized with chloral hydrate, and their abdomen was opened by a midline incision. The colon was removed, freed from surrounding tissues, opened along the antimesenteric border and processed for histology.
TNF-α and IL-6 levels were evaluated and colon tissues collected at four days after DNBS administration. Briefly, portions of terminal colon were homogenized as previously described in phosphate-buffered saline (PBS, ICN Biomedicals, Milan, Italy) containing two mmol/L of phenyl-methyl sulfonyl fluoride (PMSF, Sigma Chemical Co.). The assay was carried out using a colorimetric, commercial kit (R&D system Milan, Italy) according to the manufacturer instructions. All cytokines determinations were performed in duplicate serial dilutions.
At four days after DNBS administration, colon tissues were fixed in 10% (w/v) PBS-buffered formaldehyde and 7 μm sections were prepared from paraffin embedded tissues. After deparaffinization, endogenous peroxidase was quenched with 0.3% (v/v) hydrogen peroxide in 60% (v/v) methanol for 30 min. The sections were permeabilized with 0.1% (w/v) Triton X-100 in PBS for 20 min. Non-specific adsorption was minimized by incubating the section in 2% (v/v) normal goat serum in PBS for 20 min. Endogenous biotin or avidin binding sites were blocked by sequential incubation for 15 min with biotin and avidin (Vector Laboratories, Burlingame, Calif.), respectively. Sections were incubated overnight with: 1) purified polyclonal antibody directed towards CD4 (Santa Cruz Biotechnology, 1:500 in PBS, v/v) or 2) with purified anti-CD25 (Santa Cruz Biotecnology 1:500 in PBS, w/v) or 3) with anti- TNF-α polyclonal antibody (Santa Cruz Biotechnology, N-19:sc-1350, 1:500 in PBS, v/v) or 4) with anti-TGF-β polyclonal antibody (Santa Cruz, 1:500 in PBS, v/v).
Sections were washed with PBS, and incubated with a secondary antibody. Specific labelling was detected with a biotin-conjugated goat anti-rabbit IgG and avidin-biotin peroxidase complex (Vector Laboratories, Burlingame, Calif.).

[2] = eighteen hours after sensitization, given one hour after second oxazolone challenge

## CCC=CCC=CCC=CCC=CCC=CCC=CCCC(=O)N1CC(O)CC1C(=O)O (stereo not drawn) [MWL001]
[1]; [2]
  ear thickness: decreased ear thickness
  ear weight: decreased ear weight
[1]; hematoxylin and eosin stained sections
  histology: ear thickness and inflammatory cells in epidermis and dermis: markedly reduced
DNBS-induced colitis; colorimetric kit
  IL-6 colon levels: significant reduction
  TNF-α colon levels: significant reduction
DNBS-induced colitis; immunostaining
  expression of CD4 in colon tissue: significantly reduced
  expression of CD25 in colon tissue: significantly reduced
  expression of TGF-β in colon tissue: significantly reduced
  expression of TNF-α in colon tissue: significantly reduced

Reference: patent US20130158070A1, “CONJUGATES OF POLYUNSATURATED FATTY ACIDS AND AMINE-CONTAINING COMPOUNDS AND USES THEREOF” (priority 2010, published 2013)
